Tests used:
S6K = S6K phosphorylation in differentiating RPS19-insufficient CD34+ progenitors; assay type: cell-based, human; conditions: 5 μM, differentiating RPS19-insufficient cells
Experimental: FIG. 5. NLK-mediated phosphorylation of raptor leads to reduced mTOR activity and increased autophagy. (a) Fetal liver CD34+ progenitors were transduced with controls or shRPS19 and differentiated for 5 days in the presence or absence of 5 μM BI-D1870 (RSK inhibitor). Samples were lysed and normalized for protein abundance before being subjected to immunoprecipitation of NLK, raptor, S6K and 4E-BP1. Immunoprecipitated NLK was utilized to examine NLK activity (a—top panel—Orange, blue and green depict NLK, Myb and raptor phosphorylation respectively), while raptor, S6K and 4E-BP1 were subjected to western blotting for phosphorylated serine/threonine residues (bottom panels). In parallel, lysates were probed for total raptor, S6K, 4E-BP1, NLK and GAPDH (bottom panels) by Western blotting. […] (d) Cells treated as above were plated in 96 wells and absorbance measured at a wavelength of 520 nm. […] After imagining, 100 cells per group were analyzed and the number of intense fluorescent puncta per cell was scored (lower panels).
Raptor is the regulatory component of the mTOR Complex 1 and a substrate of NLK in osmotic and oxidative stress. […] We determined immuno-purified NLK from human and murine RPS19- and RPL11-insufficient progenitors, as well as derived from DBA patients can phosphorylate raptor in vitro (FIGS. 1-4). […]

NLK = target: T1, NLK (Homo sapiens, UniProt Q9UBE8); experiment: NLK inhibition by OTS167 in DBA models
T1 sequence (Q9UBE8 1-527): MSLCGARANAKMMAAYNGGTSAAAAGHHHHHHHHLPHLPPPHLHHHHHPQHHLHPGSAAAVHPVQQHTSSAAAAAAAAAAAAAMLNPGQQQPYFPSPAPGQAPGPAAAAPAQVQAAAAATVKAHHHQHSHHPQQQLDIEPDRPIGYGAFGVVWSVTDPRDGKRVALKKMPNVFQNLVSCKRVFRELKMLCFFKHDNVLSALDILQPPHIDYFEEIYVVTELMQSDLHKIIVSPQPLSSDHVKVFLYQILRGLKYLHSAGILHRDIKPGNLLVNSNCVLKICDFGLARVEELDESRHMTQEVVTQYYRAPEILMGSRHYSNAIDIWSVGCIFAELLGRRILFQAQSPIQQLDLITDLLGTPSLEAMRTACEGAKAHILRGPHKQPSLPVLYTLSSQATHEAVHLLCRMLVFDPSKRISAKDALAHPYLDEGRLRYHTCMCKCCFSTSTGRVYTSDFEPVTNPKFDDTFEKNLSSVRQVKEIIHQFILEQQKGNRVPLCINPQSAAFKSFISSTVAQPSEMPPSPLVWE
Text: (§1) IV. Nemo-like kinase (NLK) is hyperactivated in red cell precursors in the bone marrow of patients with DBA. Inhibition of NLK by knockdown or chemical compounds in our in vitro DBA models results in improvement of red cell production. Regardless of the underlying genetic mutation causing DBA, NLK is hyperactivated. […] Our goal is to next test OTS167 in mouse models of DBA. According to clinical trials.gov, OTS167 is currently in trials for AML, ALL, MDS, MPN, and CML, solid tumors, and breast cancer, but not DBA. This is the first example of a targeted therapy for all DBA patient regardless of the underlying mutations. Giving this drug would be easier and cheaper than gene editing to correct the gene defect.

red cell production = experiment: Red cell production in in vitro DBA models; assay type: cell-based
Text: as §1

normal bone marrow cells = experiment: Toxicity to normal bone marrow cells; assay type: cell-based; conditions: in vitro
Text: as §1

SMILES	S6K phosphorylation (S6K)	inhibition of NLK (NLK)	red cell production in vitro (red cell production)	toxicity to normal bone marrow cells (normal bone marrow cells)
CC(C)CCN1c2nc(Nc3cc(F)c(O)c(F)c3)ncc2N(C)C(=O)C1C (stereo not shown) [BI-D1870]	reduced to below basal levels	–	–	–
CC(=O)c1cnc2ccc(-c3cc(Cl)c(O)c(Cl)c3)nc2c1N[C@H]1CC[C@H](CN(C)C)CC1 [OTS167]	–	inhibit NLK	improves red cell production	without toxicity

Source: US12403132B2, “Methods of treating bone marrow failure syndromes and compositions for use in the same” (The Board of Trustees of the Leland Stanford Junior …, priority 2020, dated 2025)
